Experimental data reported in ChEMBL document CHEMBL3885881, “DrugMatrix”.

Species: Rattus norvegicus
Assay: DrugMatrix - Regimen: Daily Repeat
Assay type: toxicity, organism-based, Sprague-Dawley
Design: regimen Daily Repeat, gender Male, age 6-8 weeks
Conditions: in vivo, sc, route subcutaneous, […]; for ABSOLUTE BASOPHIL / BASOPHIL / ABSOLUTE EOSINOPHIL / ABSOLUTE LYMPHOCYTE / ABSOLUTE MONOCYTE / ABSOLUTE SEGMENTED NEUTROPHIL / EOSINOPHIL / ERYTHROCYTE COUNT / HEMATOCRIT / HEMOGLOBIN / LEUKOCYTE COUNT / LYMPHOCYTE / MEAN CORPUSCULAR HEMOGLOBIN / MEAN CORPUSCULAR HEMOGLOBIN CONCENTRATION / MEAN CORPUSCULAR VOLUME / MONOCYTE / NEUTROPHIL / NUCLEATED RED BLOOD CELLS / PLATELET COUNT: tissue Blood; for CREATININE / ALANINE AMINOTRANSFERASE / ALBUMIN / ALKALINE PHOSPHATASE / ASPARTATE AMINOTRANSFERASE / BLOOD UREA NITROGEN / CARBON DIOXIDE / CHLORIDE / CHOLESTEROL / CREATINE PHOSPHOKINASE / GLUCOSE / LACTATE DEHYDROGENASE / LIPASE / PHOSPHORUS / POTASSIUM / SODIUM / TOTAL BILIRUBIN / TOTAL PROTEIN / URIC ACID: tissue Plasma
[1] = 0 mg/kg, 72 h, dose level Control, time 3 day
[2] = 0 mg/kg, 120 h, dose level Control, time 5 day
[3] = 0.1 mg/kg, 72 h, dose level Low, time 3 day
[4] = 0.1 mg/kg, 120 h, dose level Low, time 5 day
[5] = 2 mg/kg, 72 h, dose level M2, time 3 day
[6] = 2 mg/kg, 120 h, dose level M2, time 5 day

Structure (SMILES): C[C@]12CC[C@@H]3c4ccc(OC(=O)c5ccccc5)cc4CC[C@H]3[C@@H]1CC[C@@H]2O [ESTRADIOL BENZOATE]
- ABSOLUTE BASOPHIL [1]: 0 CELLS/uL
- BASOPHIL [1]: 0%
- ABSOLUTE BASOPHIL [2]: 0 CELLS/uL
- BASOPHIL [2]: 0%
- CREATININE [2]: 0.17 mg/dL
- ABSOLUTE BASOPHIL [3]: 0 CELLS/uL
- ABSOLUTE EOSINOPHIL [3]: 27.33 CELLS/uL
- ABSOLUTE LYMPHOCYTE [3]: 9086.67 CELLS/uL
- ABSOLUTE MONOCYTE [3]: 78.67 CELLS/uL
- ABSOLUTE SEGMENTED NEUTROPHIL [3]: 1407.33 CELLS/uL
- BASOPHIL [3]: 0%
- EOSINOPHIL [3]: 0.33%
- ERYTHROCYTE COUNT [3]: 6.05 x10E6/uL
- HEMATOCRIT [3]: 38.9%
- HEMOGLOBIN [3]: 13.37 G/DL
- LEUKOCYTE COUNT [3]: 10.6 x10E3/uL
- LYMPHOCYTE [3]: 85.67%
- MEAN CORPUSCULAR HEMOGLOBIN [3]: 22.27 pg
- MEAN CORPUSCULAR HEMOGLOBIN CONCENTRATION [3]: 34.73 G/DL
- MEAN CORPUSCULAR VOLUME [3]: 64.23 fL
- MONOCYTE [3]: 0.67%
- NEUTROPHIL [3]: 13.33%
- NUCLEATED RED BLOOD CELLS [3]: 0 /100WBC
- PLATELET COUNT [3]: 1490.33 x10E3/uL
- ALANINE AMINOTRANSFERASE [3]: 35.67 u/L
- ALBUMIN [3]: 4.43 G/DL
- ALKALINE PHOSPHATASE [3]: 250.67 u/L
- ASPARTATE AMINOTRANSFERASE [3]: 76 u/L
- BLOOD UREA NITROGEN [3]: 10 mg/dL
- CARBON DIOXIDE [3]: 23.67 mmol/L
- CHLORIDE [3]: 100.33 MEQ/L
- CHOLESTEROL [3]: 76.67 mg/dL
- CREATINE PHOSPHOKINASE [3]: 460 u/L
- CREATININE [3]: 0.17 mg/dL
- GLUCOSE [3]: 191.67 mg/dL
- LACTATE DEHYDROGENASE [3]: 269.67 u/L
- LIPASE [3]: 9 u/L
- PHOSPHORUS [3]: 12.77 mg/dL
- POTASSIUM [3]: 6.18 MEQ/L
- SODIUM [3]: 140.73 MEQ/L
- TOTAL BILIRUBIN [3]: 0.1 mg/dL
- TOTAL PROTEIN [3]: 5.77 G/DL
- URIC ACID [3]: 3.8 mg/dL
- ABSOLUTE BASOPHIL [4]: 0 CELLS/uL
- ABSOLUTE EOSINOPHIL [4]: 79 CELLS/uL
- ABSOLUTE LYMPHOCYTE [4]: 6274.33 CELLS/uL
- ABSOLUTE MONOCYTE [4]: 295 CELLS/uL
- ABSOLUTE SEGMENTED NEUTROPHIL [4]: 551.67 CELLS/uL
- BASOPHIL [4]: 0%
- EOSINOPHIL [4]: 1%
- ERYTHROCYTE COUNT [4]: 5.91 x10E6/uL
- HEMATOCRIT [4]: 35.77%
- HEMOGLOBIN [4]: 13.47 G/DL
- LEUKOCYTE COUNT [4]: 7.2 x10E3/uL
- LYMPHOCYTE [4]: 86.67%
- MEAN CORPUSCULAR HEMOGLOBIN [4]: 22.8 pg
- MEAN CORPUSCULAR HEMOGLOBIN CONCENTRATION [4]: 37.67 G/DL
- MEAN CORPUSCULAR VOLUME [4]: 60.53 fL
- MONOCYTE [4]: 4%
- NEUTROPHIL [4]: 8.33%
- NUCLEATED RED BLOOD CELLS [4]: 0 /100WBC
- PLATELET COUNT [4]: 1231.67 x10E3/uL
- ALANINE AMINOTRANSFERASE [4]: 39.67 u/L
- ALBUMIN [4]: 5.37 G/DL
- ALKALINE PHOSPHATASE [4]: 187.33 u/L
- ASPARTATE AMINOTRANSFERASE [4]: 63 u/L
- BLOOD UREA NITROGEN [4]: 13.67 mg/dL
- CARBON DIOXIDE [4]: 29 mmol/L
- CHLORIDE [4]: 98.33 MEQ/L
- CHOLESTEROL [4]: 96.33 mg/dL
- CREATINE PHOSPHOKINASE [4]: 578 u/L
- CREATININE [4]: 0.18 mg/dL
- GLUCOSE [4]: 128.33 mg/dL
- LACTATE DEHYDROGENASE [4]: 137 u/L
- LIPASE [4]: 10.67 u/L
- PHOSPHORUS [4]: 11.5 mg/dL
- POTASSIUM [4]: 6.15 MEQ/L
- SODIUM [4]: 142.73 MEQ/L
- TOTAL BILIRUBIN [4]: 0.1 mg/dL
- TOTAL PROTEIN [4]: 7.67 G/DL
- URIC ACID [4]: 2.73 mg/dL
- ABSOLUTE BASOPHIL [5]: 0 CELLS/uL
- ABSOLUTE EOSINOPHIL [5]: 32 CELLS/uL
- ABSOLUTE LYMPHOCYTE [5]: 8090.33 CELLS/uL
- ABSOLUTE MONOCYTE [5]: 25.67 CELLS/uL
- ABSOLUTE SEGMENTED NEUTROPHIL [5]: 718.67 CELLS/uL
- BASOPHIL [5]: 0%
- EOSINOPHIL [5]: 0.33%
- ERYTHROCYTE COUNT [5]: 5.61 x10E6/uL
- HEMATOCRIT [5]: 37.6%
- HEMOGLOBIN [5]: 14.37 G/DL
- LEUKOCYTE COUNT [5]: 8.87 x10E3/uL
- LYMPHOCYTE [5]: 91.33%
- MEAN CORPUSCULAR HEMOGLOBIN [5]: 25.63 pg
- MEAN CORPUSCULAR HEMOGLOBIN CONCENTRATION [5]: 38.23 G/DL
- MEAN CORPUSCULAR VOLUME [5]: 67.03 fL
- MONOCYTE [5]: 0.33%
- NEUTROPHIL [5]: 8%
- NUCLEATED RED BLOOD CELLS [5]: 0.33 /100WBC
- PLATELET COUNT [5]: 1211.67 x10E3/uL
- ALANINE AMINOTRANSFERASE [5]: 46.67 u/L
- ALBUMIN [5]: 3.97 G/DL
- ALKALINE PHOSPHATASE [5]: 647.67 u/L
- ASPARTATE AMINOTRANSFERASE [5]: 67.67 u/L
- BLOOD UREA NITROGEN [5]: 9.67 mg/dL
- CARBON DIOXIDE [5]: 23.33 mmol/L
- CHLORIDE [5]: 96.33 MEQ/L
- CHOLESTEROL [5]: 36.33 mg/dL
- CREATINE PHOSPHOKINASE [5]: 231.67 u/L
- CREATININE [5]: 0.28 mg/dL
- GLUCOSE [5]: 138.67 mg/dL
- LACTATE DEHYDROGENASE [5]: 103 u/L
- LIPASE [5]: 9.33 u/L
- PHOSPHORUS [5]: 10.07 mg/dL
- POTASSIUM [5]: 5.43 MEQ/L
- SODIUM [5]: 138.43 MEQ/L
- TOTAL BILIRUBIN [5]: 0.1 mg/dL
- TOTAL PROTEIN [5]: 5.77 G/DL
- URIC ACID [5]: 0.63 mg/dL
- ABSOLUTE BASOPHIL [6]: 0 CELLS/uL
- ABSOLUTE EOSINOPHIL [6]: 34.67 CELLS/uL
- ABSOLUTE LYMPHOCYTE [6]: 10740.67 CELLS/uL
- ABSOLUTE MONOCYTE [6]: 0 CELLS/uL
- ABSOLUTE SEGMENTED NEUTROPHIL [6]: 658 CELLS/uL
- BASOPHIL [6]: 0%
- EOSINOPHIL [6]: 0.33%
- ERYTHROCYTE COUNT [6]: 6.23 x10E6/uL
- HEMATOCRIT [6]: 39.53%
- HEMOGLOBIN [6]: 15 G/DL
- LEUKOCYTE COUNT [6]: 11.43 x10E3/uL
- LYMPHOCYTE [6]: 93.67%
- MEAN CORPUSCULAR HEMOGLOBIN [6]: 24.17 pg
- MEAN CORPUSCULAR HEMOGLOBIN CONCENTRATION [6]: 38 G/DL
- MEAN CORPUSCULAR VOLUME [6]: 63.5 fL
- MONOCYTE [6]: 0%
- NEUTROPHIL [6]: 6%
- NUCLEATED RED BLOOD CELLS [6]: 0 /100WBC
- PLATELET COUNT [6]: 1334 x10E3/uL
- ALANINE AMINOTRANSFERASE [6]: 47.33 u/L
- ALBUMIN [6]: 3.9 G/DL
- ALKALINE PHOSPHATASE [6]: 436.33 u/L
- ASPARTATE AMINOTRANSFERASE [6]: 73.67 u/L
- BLOOD UREA NITROGEN [6]: 13.67 mg/dL
- CARBON DIOXIDE [6]: 24.33 mmol/L
- CHLORIDE [6]: 103.67 MEQ/L
- CHOLESTEROL [6]: 34 mg/dL
- CREATINE PHOSPHOKINASE [6]: 348.33 u/L
- CREATININE [6]: 0.2 mg/dL
- GLUCOSE [6]: 160.67 mg/dL
- LACTATE DEHYDROGENASE [6]: 186.67 u/L
- LIPASE [6]: 8.67 u/L
- PHOSPHORUS [6]: 11.73 mg/dL
- POTASSIUM [6]: 5.75 MEQ/L
